# Patent publication USRE42890E1, “Furazanobenzimidazoles” (Basilea Pharmaceutica AG, priority 2003, dated 2011)
# Key:
# Jily = test: MTS proliferation assay, Jily; type: cell-based; settings: 72 h incubation, read-out: MTS proliferation assay IC 50 Jily
# Protocol: (§1) Cell lines are cultured in RPMI-1640 tissue culture medium containing either 5% or 10% fetal calf serum, 0.05 mM 2-mercaptoethanol, 2 mM glutamine and penicillin/streptomycin 50 μg/ml (complete medium) (Sigma, Buchs, Switzerland). General growth conditions are 37° C. and 7.5% CO2.
# (§2) The assay is performed in 96 well tissue culture plates. The cells (range: 1.5*10^3-10^4) are seeded out in 80 μl complete medium 24 h prior to compound treatment. The test compounds are added in 20 μl complete medium containing max 5% DMSO. The final compound concentrations in the assays are 10 μM, 3 μM, 1 μM and 0.3 μM, respectively. The assay plates are incubated for 72 h at culture conditions. The MTS reagent is prepared according to the manufacturer's protocol (Promega G1111). 20 μl MTS reagent are added to each well, the assay plates are quickly spun and incubated for another 3 h at culture conditions. Subsequently, the plates are shortly shaked and absorption measured with a microplate-reader at 492 nm.
# HT1080 = test: MTS proliferation assay, HT1080; type: cell-based, human; settings: HT1080, 72 h incubation; read-out: MTS proliferation assay IC 50 HT1080
# Protocol: as §1
# The following human cell lines (either EGFP transfected or not) are being used: HeLa (ATCC: CCL-2), KB (ATCC: CCL-17), MCF7 (ATCC: HTB-22), SK-BR-3 (ATCC: HTB-30), SK-Mel 1 (ATCC: HTB-67), SK-Mel 28 (ATCC: HTB-72), PC-3 (ATCC: CRL-1435), SW 480 (ATCC: CCL-228), NCl-H460 (ATCC: HTB-177), NCl-H1792 (ATCC: CRL-5895), HT1080 (ATCC: CCL-21), Jurkat (ATCC: TIB-152), Ramos (ATCC: CRL-1596), Raji (ATCC: CCL-86), H9 (ATCC: HTB-176), Hut78 (ATCC: TIB-161), K562 (ATCC: CCL 243), HL-60 (ATCC: CCL 240), U-87MG (ATCC: HTB-14), HepG2 (ATCC: HB-8065), U-2 OS (ATCC: HTB-96), Saos-2 (ATCC: HTB-85), U937 (ATCC: CRL 1593), Hs 578T (ATCC: HTB 126), HBL-100 (ATCC: HTB 124), Molt-4 (ATCC: CRL 1582).
# as §2
# HeLa = test: MTS proliferation assay, HeLa; type: cell-based, human; settings: 72 h incubation, read-out: MTS proliferation assay IC 50 HeLa
# Outline: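 Proliferation: RPMI-1640/FCS complete medium, 37 °C, 7.5% CO2, cells plated 24 h pre-dose; compounds at 10, 3, 1, 0.3 μM final for 72 h; MTS, 492 nm.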
# MRC5 = test: MTS proliferation assay, MRC5; type: cell-based; settings: MRC5, 72 h incubation; read-out: MTS proliferation assay IC 50 MRC5
# Outline: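 Viability after 72 h compound exposure at 10, 3, 1 and 0.3 μM final was scored by MTS absorbance (492 nm, 3 h reagent incubation), with cells kept in RPMI-1640 containing 5% or 10% fetal calf serum.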
# [1] = tested on: adherent cells or suspension cells; test: Hoechst 33342 nuclear staining (fraction of apoptotic nuclei); type: cell-based; set-up: key: 0 relating to no activity; 1 relating to weak activity comprising less than 70% of the cells; score 2 relating to strong activity comprising more than 70% of the cells
SMILES,IC50 (Jily) [nM],IC50 (HT1080) [nM],IC50 (HeLa) [nM],IC50 (MRC5) [nM],"Hoechst 33342 nuclear staining score ([1]; H460, conc 0.01 μm)","Hoechst 33342 nuclear staining score ([1]; H460, conc 0.1 μm)","Hoechst 33342 nuclear staining score ([1]; H460, conc 1 μm)","Hoechst 33342 nuclear staining score ([1]; HeLa, conc 0.01 μm)","Hoechst 33342 nuclear staining score ([1]; HeLa, conc 0.1 μm)","Hoechst 33342 nuclear staining score ([1]; HeLa, conc 1 μm)","Hoechst 33342 nuclear staining score ([1]; Jily, conc 0.01 μm)","Hoechst 33342 nuclear staining score ([1]; Jily, conc 0.1 μm)","Hoechst 33342 nuclear staining score ([1]; Jily, conc 1 μm)","Hoechst 33342 nuclear staining score ([1]; Jurkat, conc 0.01 μm)","Hoechst 33342 nuclear staining score ([1]; Jurkat, conc 0.1 μm)","Hoechst 33342 nuclear staining score ([1]; Jurkat, conc 1 μm)","Hoechst 33342 nuclear staining score ([1]; MRC5, conc 0.01 μm)","Hoechst 33342 nuclear staining score ([1]; MRC5, conc 0.1 μm)","Hoechst 33342 nuclear staining score ([1]; MRC5, conc 1 μm)","Hoechst 33342 nuclear staining score ([1]; PBLs, conc 0.01 μm)",other results
Nc1nonc1-c1nc2ccccc2n1COc1cc(C(F)(F)F)cc(C(F)(F)F)c1 [Example 102],100 to 1000,> 1000,> 1000,100 to 1000,0,0,1 (1 relating to weak activity comprising less than 70% of the cells),0,0,0,0,0,1 (1 relating to weak activity comprising less than 70% of the cells),0,0,2 (score 2 relating to strong activity comprising more than 70% of the cells),0,0,0,0,"Hoechst 33342 nuclear staining score ([1]; PBLs, conc 0.1 μm): 0; Hoechst 33342 nuclear staining score ([1]; PBLs, conc 1 μm): 0"
Cc1ccc(OCn2c(-c3nonc3N)nc3ccccc32)cc1C [Example 101],10 to 100,10 to 100,10 to 100,10 to 100,0,1 (1 relating to weak activity comprising less than 70% of the cells),2 (score 2 relating to strong activity comprising more than 70% of the cells),0,1 (1 relating to weak activity comprising less than 70% of the cells),2 (score 2 relating to strong activity comprising more than 70% of the cells),0,1 (1 relating to weak activity comprising less than 70% of the cells),2 (score 2 relating to strong activity comprising more than 70% of the cells),0,2 (score 2 relating to strong activity comprising more than 70% of the cells),2 (score 2 relating to strong activity comprising more than 70% of the cells),0,1 (1 relating to weak activity comprising less than 70% of the cells),1 (1 relating to weak activity comprising less than 70% of the cells),0,"Hoechst 33342 nuclear staining score ([1]; PBLs, conc 0.1 μm): 0; Hoechst 33342 nuclear staining score ([1]; PBLs, conc 1 μm): 0"
Nc1nonc1-c1nc2ccccc2n1COc1cccc(C(F)(F)F)c1 [Example 103],10 to 100,100 to 1000,100 to 1000,100 to 1000,0,0,2 (score 2 relating to strong activity comprising more than 70% of the cells),0,0,2 (score 2 relating to strong activity comprising more than 70% of the cells),0,0,2 (score 2 relating to strong activity comprising more than 70% of the cells),0,1 (1 relating to weak activity comprising less than 70% of the cells),2 (score 2 relating to strong activity comprising more than 70% of the cells),0,0,1 (1 relating to weak activity comprising less than 70% of the cells),0,"Hoechst 33342 nuclear staining score ([1]; PBLs, conc 0.1 μm): 0; Hoechst 33342 nuclear staining score ([1]; PBLs, conc 1 μm): 0"
Nc1nonc1-c1nc2ccccc2n1CC(=O)c1cc(F)ccc1F [Example 71],100 to 1000,> 1000,100 to 1000,> 1000,0,0,0,0,0,0,0,0,1 (1 relating to weak activity comprising less than 70% of the cells),0,0,2 (score 2 relating to strong activity comprising more than 70% of the cells),0,0,0,0,"Hoechst 33342 nuclear staining score ([1]; PBLs, conc 0.1 μm): 0; Hoechst 33342 nuclear staining score ([1]; PBLs, conc 1 μm): 0"
